For 1 substance, MIC results are on record in paper PMC6737244, “Cathelicidin Peptides Restrict Bacterial Growth via Membrane Perturbation and Induction of Reactive Oxygen Species” (mBio, 2019).

For experiment [1], the system named is Pseudomonas aeruginosa PAO1 oprD. It counts as cell-based. The note with it: CAMHB, 16 to 18 h, at least three independent assays.
For experiment [2], the system named is Escherichia coli J53 AzideR. It counts as cell-based. The following applies: CAMHB, 16 to 18 h, at least three independent assays.

Ends that are not written are not given here.

As for FRKKLKKLFKKLSPVIPLLKLG-NH2 [B22a], the minimal inhibitory concentration (MIC) in experiment [1] and in experiment [2] was 2 µM throughout.
